Experimental data reported in patent US6156700A, “3-(1,2-Benzisothiazol- and isoxazol-5-yl)-2,4(1H,3H)-pyrimidinedione or thione and 3-(1,2-benzisothiazol- and isoxazol-5-yl)-4(3H)-pyrimidinone or thione herbicidal agents” (American Cyanmid Company, priority 1998, dated 2000).

Key:
[1] = test system: MOOVA Monochoria; assay: Preemergence weed control, flooded paddy (Table III); assay type: in vivo, Monochoria vaginalis; design: scale not given here
Procedure, shortened: (§1)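 Seeds or propagules sown in silt loam under 1.5 to 3 cm standing flood water; compound in 50/50 aqueous/acetone pipetted into the water at about 0.0313 to 0.500 kg/ha active ingredient. Greenhouse-held; herbicidal effect rated on a scale 3-4 weeks after treatment.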

[2] = test system: Sicklepod, Cassia obtusifolia; assay: Postemergence herbicidal evaluation, CASOB; assay type: in vivo, L.; conditions: 0.2500 kg/ha
Procedure, shortened: (§2)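 Visual 0–9 scoring against untreated control, made four to five weeks post-spray and averaged over repeat tests, covers stand, vigor, malformation, size and chlorosis. Treatment: foliar spray at 40 psi onto ~2-week seedlings, about 0.0157–0.500 kg/ha, compound in 1:1 acetone/water with 0.5% TWEEN 20.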

[3] = test system: Barnyardgrass, Echinochloa crus-galli; assay: Postemergence herbicidal evaluation, ECHCG; assay type: in vivo, (L.) Beau; conditions: 0.2500 kg/ha
Procedure, shortened: as §2

[4] = test system: CYPIR Rice Flatsedge; assay: Preemergence weed control, flooded paddy (Table III); assay type: in vivo, Cyperus iria; design: scale not given here
Procedure, shortened: as §1

[5] = test system: Rice, Tebonnet, Oryza sativa; assay: Postemergence herbicidal evaluation, ORYSAT; assay type: in vivo, (L.) Tebonnet; conditions: 0.2500 kg/ha
Procedure, shortened: as §2

[6] = test system: ECHORC Watergrass (Calif.); assay: Postemergence weed control, flooded paddy (Table IV); assay type: in vivo, Echinochloa oryzoides; design: scale not given here
Procedure, shortened: (§3)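 Weeds 3–5 cm tall and rice at 1.5–2.5 leaf stage in flooded containers, water held 1.5–3 cm above soil. Compounds in 50/50 aqueous/acetone applied into flood water at about 0.0313–0.500 kg/ha. Herbicidal effect rated visually three to four weeks after treatment.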

[7] = test system: Foxtail, Green, Setaria viridis; assay: Preemergence herbicidal evaluation, SETVI; assay type: in vivo, (L.) Beau; conditions: 0.2500 kg/ha
Procedure, shortened: (§4)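 Values are 0–9 visual ratings of stand, vigor, malformation, size, chlorosis and overall appearance relative to a control, scored 4 to 5 weeks after treatment. Test compound in aqueous acetone was sprayed onto soil right after seeding, at rates equivalent to about 0.0156–0.500 kg per hectare.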

[8] = test system: Wheat, Winter, cv Riband, Triticum aestivum; assay: Preemergence herbicidal evaluation, TRZAWR; assay type: in vivo; conditions: 0.2500 kg/ha
Procedure, shortened: as §4

[9] = test system: Foxtail, Green, Setaria viridis; assay: Postemergence herbicidal evaluation, SETVI; assay type: in vivo, (L.) Beau; conditions: 0.2500 kg/ha
Procedure, shortened: as §2

[10] = test system: Ragweed, Common, Ambrosia artemisifolia; assay: Preemergence herbicidal evaluation, AMBEL; assay type: in vivo, L.; conditions: 0.2500 kg/ha
Procedure, shortened: as §4

[11] = test system: CYPIR Rice Flatsedge; assay: Postemergence weed control, flooded paddy (Table IV); assay type: in vivo, Cyperus iria; design: scale not given here
Procedure, shortened: as §3

[12] = test system: ECHORC Watergrass (Calif.); assay: Preemergence weed control, flooded paddy (Table III); assay type: in vivo, Echinochloa oryzoides; design: scale not given here
Procedure, shortened: as §1

[13] = test system: Ragweed, Common, Ambrosia artemisifolia; assay: Postemergence herbicidal evaluation, AMBEL; assay type: in vivo, L.; conditions: 0.2500 kg/ha
Procedure, shortened: as §2

[14] = test system: Velvetleaf, Abutilon theophrasti; assay: Preemergence herbicidal evaluation, ABUTH; assay type: in vivo, Medic.; conditions: 0.2500 kg/ha
Procedure, shortened: as §4

[15] = test system: Rice, Tebonnet, Oryza sativa; assay: Preemergence herbicidal evaluation, ORYSAT; assay type: in vivo, (L.) Tebonnet; conditions: 0.2500 kg/ha
Procedure, shortened: as §4

[16] = test system: Corn, Field, Zea mays; assay: Preemergence herbicidal evaluation, ZEAMX; assay type: in vivo, L.; conditions: 0.2500 kg/ha
Procedure, shortened: as §4

[17] = test system: Corn, Field, Zea mays; assay: Postemergence herbicidal evaluation, ZEAMX; assay type: in vivo, L.; conditions: 0.2500 kg/ha
Procedure, shortened: as §2

[18] = test system: Galium, Galium aparine; assay: Postemergence herbicidal evaluation, GALAP; assay type: in vivo; conditions: 0.2500 kg/ha
Procedure, shortened: as §2

[19] = test system: ORYSAT Rice, Tebonnet; assay: Rice tolerance, flooded paddy (Table IV); assay type: in vivo, Oryza sativa; design: scale not given here; conditions: crop tolerance
Procedure, shortened: as §3

[20] = test system: Barnyardgrass, Echinochloa crus-galli; assay: Preemergence herbicidal evaluation, ECHCG; assay type: in vivo, (L.) Beau; conditions: 0.2500 kg/ha
Procedure, shortened: as §4

[21] = test system: Wheat, Winter, cv Riband, Triticum aestivum; assay: Postemergence herbicidal evaluation, TRZAWR; assay type: in vivo; conditions: 0.2500 kg/ha
Procedure, shortened: as §2

Structure (SMILES): COC(=O)C(C)Oc1cc(C)c(C)cc1-c1nsc2ccc(-n3c(=O)cc(C(F)(F)F)n(C)c3=O)cc12 (stereo not drawn) [Compound 13, Methyl 2-{{6-{5-[3,6-dihydro-3-methyl-4-(trifluoromethyl)-2,6-dioxo-1(2H)-pyrimidinyl]-1,2-benzisothiazol-3-yl}-3,4-xylyl}oxy}propionate]
- herbicidal effect rating ([1]; 0.0313 kg/ha): 9.0
- herbicidal effect rating ([1]; 0.0625 kg/ha): 9.0
- herbicidal effect rating ([1]; 0.1250 kg/ha): 9.0
- herbicidal effect rating ([1]; 0.2500 kg/ha): 9.0
- herbicidal effect rating ([1]; 0.5000 kg/ha): 9.0
- herbicide rating (0-9) [2]: 9.0
- herbicide rating (0-9) [3]: 9.0
- herbicidal effect rating ([4]; 0.0313 kg/ha): 9.0
- herbicidal effect rating ([4]; 0.0625 kg/ha): 9.0
- herbicidal effect rating ([4]; 0.1250 kg/ha): 9.0
- herbicidal effect rating ([4]; 0.2500 kg/ha): 9.0
- herbicidal effect rating ([4]; 0.5000 kg/ha): 9.0
- herbicide rating (0-9) [5]: 8.0
- herbicidal effect rating ([6]; 0.1250 kg/ha): 6.0
- herbicidal effect rating ([6]; 0.2500 kg/ha): 8.0
- herbicidal effect rating ([6]; 0.5000 kg/ha): 9.0
- herbicide rating (0-9) [7]: 9.0
- herbicide rating (0-9) [8]: 4.0
- herbicide rating (0-9) [9]: 9.0
- herbicide rating (0-9) [10]: 9.0
- herbicidal effect rating ([11]; 0.1250 kg/ha): 9.0
- herbicidal effect rating ([11]; 0.2500 kg/ha): 9.0
- herbicidal effect rating ([11]; 0.5000 kg/ha): 9.0
- herbicidal effect rating ([12]; 0.0313 kg/ha): 9.0
- herbicidal effect rating ([12]; 0.0625 kg/ha): 9.0
- herbicidal effect rating ([12]; 0.1250 kg/ha): 9.0
- herbicidal effect rating ([12]; 0.2500 kg/ha): 9.0
- herbicidal effect rating ([12]; 0.5000 kg/ha): 9.0
- herbicide rating (0-9) [13]: 9.0
- herbicide rating (0-9) [14]: 9.0
- herbicide rating (0-9) [15]: 6.0
- herbicide rating (0-9) [16]: 4.0
- herbicide rating (0-9) [17]: 9.0
- herbicide rating (0-9) [18]: 8.0
- herbicidal effect rating ([19]; 0.1250 kg/ha): 4.0
- herbicidal effect rating ([19]; 0.2500 kg/ha): 4.0
- herbicidal effect rating ([19]; 0.5000 kg/ha): 7.0
- herbicide rating (0-9) [20]: 9.0
- herbicide rating (0-9) [21]: 8.5
